Read-outs that look alike come from different tables or passages of the source.
What was measured:
[1] = test system: MON (INI1−/−) rhabdoid tumor cells; experiment: MTS survival assay of rhabdoid tumor cells; format: cell-based
Description: FIG. 1A-1D. Effect of 4HPR derivatives with phenyl group substitutions on survival of rhabdoid tumors cells. MON (INI1−/−) cells were treated with serial dilutions of the 4HPR, ATRA and 4HPR derivatives for three days. Survival assay was carried out as described using MTS assay kit. Percentage of cell survival plotted against concentration of drugs (Mean+/−SEM).
FIG. 2. Effect of fenretinide peptidomimitic derivatives on the survival of rhabdoid tumor cells in culture. % survival of MON rhabdoid tumor cells treated with fenretinide derivatives, when compared to the vehicle treated control. The data in all the panels represent the average of triplicate experiments, and the standard error is indicated.
(§1) The rhabdoid cell line (MON) (88) was cultured in RPMI 1640 supplemented with 10% fetal bovine serum, 2 mM L-glutamine, 50 U/ml penicillin, and 50 μg/ml streptomycin at 37° C. with 5% CO2 and 95% humidified air. 4-(Fenretinide) was either obtained from NCI or synthesized in house. Fenretinide or its synthetic derivatives were reconstituted in 100% ethanol as a 10 mM solution and the aliquots were stored frozen at −80° C., protected from light. Working solutions (50 μM or 200 μM) and serial dilutions were prepared by diluting the stock solution with culture medium, such that the concentration of ethanol was <2% in all dilutions.
Aliquots of 8×10^3 MON cells were plated in 96-well microdilution plates. Twenty four hours after seeding, the cells were treated with serial dilutions of each drug. Following incubation for 24 or more hours, each well was stained with 20 μl of MTS [3-(4,5-dimethylthiazol-2-yl)-5-(3-carboxymethoxyphenyl)-2-(4-sulfophenyl)-2H-tetrazolium, inner salt] that was mixed 20:1 V/V in PMS (phenazine methosulphate, CellTiter 96® AQueous Non-Radioactive Cell Proliferation Assay Kit, Promega, Madison, Wis.) added to each of the well in the microtiter plate containing 100 μl of culture medium. After 4 h incubation, the plates were analyzed by an ELISA plate reader (Wallac Victor, 1420 Multilabel Counter, Perkin Elmer) at 490 nm wave-length. Cell plating, drug treatment and survival assay were performed using the epMotion 5070 automated liquid handling robotic system (Eppendorff, Westbury, N.Y.).
Statistical analysis of the data was carried out using GraphPad Prism (San Diego, Calif.). Relative IC50 values were calculated using the nonlinear regression curve fit with sigmoidal dose response (variable slope) function. Relative IC50 is defined as the concentration giving a response exactly half way between the fitted top and bottom of the survival curve when graphed as percent inhibition versus the log of the concentration of compound. The fitting error, or standard error describes the error involved in fitting the curve.

[2] = Precipitation / solubility in cell culture medium; format: physicochemical
Description: as §1

[3] = test system: MON (INI1−/−) rhabdoid tumor cells; experiment: MTS survival assay of rhabdoid tumor cells; format: cell-based; conditions: charcoal adsorbed serum
[4] = test system: Cyclin D1; experiment: Immunoblot analysis of Cyclin D1 expression; format: cell-based; conditions: biomarker expression, Table 3
Description: FIG. 5A-5B. Effect of fenretinide, its derivatives and peptidomimetic compounds on expression of Cyclin D1. Immunoblot analysis to determine the effect of fenretinide and its halogen substitutes (A) and peptidomimetic compounds (B). GAPDH is a loading control.
This assay was performed using a routine laboratory protocol as previously described using chemiluminescence detection method (30). The following antibodies were used: polyclonal α-cyclin D1 Ab-3 (NeoMarkers, Cat# RB-010-P0), monoclonal α-cyclin D1 DCS-6 (NeoMarkers, Cat# MS-210-P1), α-β-Actin (Sigma Cat# A5441) and α-Tubulin-α (Sigma, Cat # T5168).
(§2) The effects of fenretinide, halogen substitutes, and peptidomimetic derivatives on cell cycle regulation and apoptosis were tested by using: i) cell survival assay (MTS); ii) FACS analysis; and iii) immunoblot analysis to determine the effect on Cyclin D1.

[5] = test system: MON cells; experiment: FACS analysis of cell cycle and sub-G1 (apoptosis); format: cell-based; conditions: 2 days
Description: (§3) FIG. 3A-3B. Induction of cell cycle arrest and apoptosis by halogen derivatives of fenretinide. A. Cell cycle profile determined by FACS analysis of MON cells treated with either 5 or 10 μM concentrations of fenretinide and its derivatives for 2 days. Percentage of cells at various stages of cell cycle (G1, S and G2) is indicated. B. Percentage of MON cells at sub-G1 when exposed for 2 days to fenretinide and its derivatives.
as §3, with “4A-4B.” for “3A-3B.”, “peptidomimetic” for “halogen”
as §2

[6] = test system: tumor cell; conditions: in vitro, literature (ref 1); read-out: IC50s, suppression of tumor cell growth in vitro; cited from earlier work
[7] = 200 mg/day (MTD), breast cancer patients, literature (ref 3); cited from earlier work
[8] = regular FBS, read-out: IC50 (in regular FBS)
[9] = MON cells, nonlinear regression, sigmoidal dose response, read-out: Relative IC50
[10] = MON rhabdoid cells, survival assay, values in text, read-out: IC50

Compound: CC1=C(/C=C/C(C)=C/C=C/C(C)=C/C(=O)Nc2ccc(I)cc2)C(C)(C)CCC1 [5(d), (2E,4E,6E,8E)-[3,7-Dimethyl-9-(2,6,6-trimethyl-1-cyclohexenyl)-nona-2,4,6,8-tetraenoylamino]-(4-iodo)phenylamide]
- IC50 [1, 8]: > 50 µM
- behaviour in cell culture medium (precipitation / insolubility) [2]: precipitated in cell culture medium
- IC50 [3]: > 15 µM

Compound: CCC1=C(C)/C(=C/c2ccc(C(=O)Nc3ccc(O)c(I)c3)cc2)CCC1(C)C [Compound 11d, (E)-4-((3-ethyl-2,4,4-trimethylcyclohex-2-enylidene)methyl)-N-(4-hydroxy-3-iodophenyl)benzamide]
- IC50 [1, 9]: 3.15 µM
- IC50 [1, 10]: 3 µM
- cytotoxic activity against rhabdoid tumor cells (in words) ([1]; compared with 4-HPR): more active when compared to parent Fenretinide
- behaviour in cell culture medium (precipitation / insolubility) [2]: did not show any precipitation

Compound: CC1=C(/C=C/C(C)=C/C=C/C(C)=C/C(=O)Nc2ccc(O)cc2)C(C)(C)CCC1 [Compound 4-HPR, N-(4-hydroxyphenyl)retinamide, reference compound]
- IC50 [1, 9]: 14.7 µM
- IC50 ([1]; MON cells, three days, compounds in FIG. 1A-1D, concentration of drug required to kill 50% of cells, read-out: IC50): 19 µM
- IC50 [1, 10]: ~15 µM
- IC50 [1, 8]: 12 to 19 µM
- Repression of Cyclin D1 [4]: Yes
- % G1 ([5]; 5 μM, Table 5): 86.32%
- % G2 ([5]; 5 μM, Table 5): 6.73%
- % S ([5]; 5 μM, Table 5): 6.95%
- SubG1 (percentage of MON cells at sub-G1) ([5]; 5 μM, Table 5): 37.12%
- % G1 ([5]; 5 μM, Table 6): 86.32%
- % G2 ([5]; 5 μM, Table 6): 6.49%
- % S ([5]; 5 μM, Table 6): 6.95%
- SubG1 (percentage of MON cells at sub-G1) ([5]; 5 μM, Table 6): 37.12%
- % G1 ([5]; 10 μM, Table 5): 85.41%
- % G2 ([5]; 10 μM, Table 5): 6.66%
- % S ([5]; 10 μM, Table 5): 7.93%
- SubG1 (percentage of MON cells at sub-G1) ([5]; 10 μM, Table 5): 73.98%
- % G1 ([5]; 10 μM, Table 6): 85.41%
- % G2 ([5]; 10 μM, Table 6): 7.60%
- % S ([5]; 10 μM, Table 6): 8.02%
- SubG1 (percentage of MON cells at sub-G1) ([5]; 10 μM, Table 6): 73.98%
- IC50 [3]: 2 µM
- IC50 [6]: 1 to 10 µM
- plasma concentration [7]: 1000 nM

From patent US8460635B2, “Fenretinide derivatives and uses thereof as therapeutic, diagnostic and imaging agents” (Albert Einstein College of Medicine of Yeshiva University, priority 2008, dated 2013)
